Assay results published in patent EP4722365A1, “DOUBLE-STRANDED NUCLEOTIDE COMPOUND FOR METABOLIC DISEASES AND USE THEREOF” (Visirna Therapeutics (Suzhou) Co., Ltd., priority 2023, dated 2024).

How the values were obtained:
hDGAT2 = assay: Mouse model receiving hydrodynamic injection of DGAT2 plasmid via tail vein (Example 5, liver mRNA qPCR); assay type: in vivo; conditions: 3mpk subcutaneously day 0, HDI day 14, BALB/c mice
Description: BALB/c mice, female, 6-7 weeks old.
pcDNA-DGAT2 plasmid, having a concentration of 2 µg/µL, diluted with physiological saline for later use.
The hydrodynamic injection scheme of DGAT2 plasmid DNA via tail vein, the administration and the sample collection method were as follows.
Treatment with compound: The day of administration to mice was defined as day 0, the day before it was day -1, the day after it was day 1, and so on. On day 0, the mice were injected subcutaneously with 5 mL/kg of the solvent or the test compound, at a dosage of 3mpk.
Hydrodynamic injection of DGAT2 plasmid DNA solution into mice via tail vein: On day 4 or 14, the plasmid DNA was prepared with normal saline before injection, and stored at 4°C until use. All mice were injected with the plasmid DNA solution in a volume of 8% of the body weight (injection volume (mL)= body weight of mice (g) x 8%) in 5 seconds via the tail vein, and the weight of plasmid injected into each mouse was 10 µg.
Endpoint of the experiment and collection of liver samples: On day 5 or 15, that is, 24 hrs after the hydrodynamic injection of DGAT2 plasmid via the tail vein, all mice were euthanized by CO2 inhalation. After euthanasia, blood samples were collected from the heart and liver samples were collected. 2 liver tissues of about 70 mg were immersed in RNAlater®, and incubated overnight at 4 °C. The supernatant was discarded and the remainder was transferred to a freezer at -80°C, for mRNA detection later.
RNA in the liver was extracted with Trizol. The method was briefly described as follows: 50-70 mg of liver tissue and 1.2 mL of Trizol were homogenized with Qiagen Tissue Lyser II at 26 Hz for 2 min and lyzed at room temperature for 5 min. 1 mL of the supernatant was taken, added to 200 uL of chloroform, vigorously shaken for 15 s, allowed to stand for 3 min, and centrifuged. The supernatant was collected, added with an equal volume of isopropanol, and stood overnight at -20°C for precipitation. The precipitate was washed twice with 70% , and dissolved in water without RNase. The concentration of the RNA sample was determined by Nanodrop ONE and diluted to 400 ng/uL with water without RNase for reverse transcription.
The experimental steps of reverse transcription could be made reference to the instruction of FastKing cDNA first strand synthesis kit (genome clean). Briefly, a gDNA removal mixture was prepared according to Table 6. The mixture (5 µL/sample) and 400 ng/µL RNA sample were added to a 96-well PCR reaction plate, incubated at 42°C for 3 min, and cooled on ice. A mixture for reverse transcription was prepared according to Table 7. The reverse transcription mixture (10 µL/sample) and the DNA removal product of the previous step were added to a 96-well PCR reaction plate, for reverse transcription. Reaction conditions: 42°C for 15 min; and 95°C for 3 min. The cDNA was stored at 4°C for further analysis. Table 6. Ingredients for gDNA-removal reaction
Reaction conditions: 95°C for 10 min; and 40 cycles of 95°C for 15 s, and 60°C for 1 min. Table 8. Ingredients for qPCR Reaction (DGAT2)
The expression of the target gene in each sample was analyzed by relative quantification using ΔΔCt method. In this method, the Ct difference (ΔCt) between the target gene (DGAT2) and the internal reference gene (Neo) was determined, and the ΔCt value of the sample treated with the compound was compared with that of the control group.
The formula is: ΔCt = average Ct value of target gene−average Ct value of reference gene. [formula] [formula]
Data analysis: The data are expressed as the average of each group of mouse samples ± standard error. Unless otherwise specified, n=4 or 5. Student's t test was used for statistical analysis. Table 10.1 Test for evaluating the in-vivo inhibitory activity of siRNA compounds on target gene DGAT2 in mice model receiving hDGAT2 HDI 5 days after administration

human DGAT2 = assay: Non-alcoholic steatohepatitis induced by a western diet in human DGAT2 carrying mice (Example 9, liver histology scores); assay type: in vivo, mouse; conditions: for Ballooning degeneration / Fibrosis score / Grade of steatosis / Lobular inflammation / NAFLD score: B6-hDGAT2 mice, western diet
Description: Humanized mice with B6-hDGAT2-TG target and non-alcoholic steatohepatitis model were provided by GemPharmatech LLC. On D0, subcutaneous administration and induction and feeding with western diet were started. On D29, the second injection was performed. Effective period: 8 weeks. 4 mice in one group were sacrificed at 4-week endpoint, and 4 mice in the other group were sacrificed at 8-week endpoint.
Plasma was collected every week to detect the levels of TG, Chol, HDL-C, LDL-C, ALT, and AST, and the liver was stained with HE and NASH score were obtained at the endpoint.

DGAT2 = assay: Inhibitory activity of dS319 on the target gene DGAT2 in non-naive Cynomolgus macaque (Example 11); assay type: in vivo; conditions: for Average inhibition rate, %: 3mpk subcutaneous on days 1 and 29, liver
Description: In-vivo experiment: The in-vivo experimental designs for subcutaneous injection in non-naive Cynomolgus macaque, the administration and the sample collection method were shown in the table below. The day of administration to non-naive Cynomolgus macaque was defined as day 1, the day before it was day 0, the day after it was day 2, and so on. Each group had 2 animals. On days 1 and 29, the animals were injected subcutaneously with the solvent or 0.5 mL/kg of the test compound.
On day 0 (0 h) before administration by SC, and days 7, 29, 56 and 99 after administration, the liver sample was collected. Collection method: The animals was fasted for 12-16 hrs before sample collection. Collection of liver biopsy tissue: The collection process would be operated and recorded according to the SOP of the research institution.

[1] = 3mpk, D0 and D29, 8-week endpoint
[2] = 3mpk, 4-week endpoint, mean ± SEM
[3] = 6mpk, D0 and D29, 8-week endpoint
[4] = 6mpk, 4-week endpoint, mean ± SEM

## dS319: sense (invAb)*acaccauaGfAfCfuauuugcuua[L96]; anti-sense Vpu*Af*a*GfcAfaauagUfcUfaUfgGfuGf* u
hDGAT2
  Average inhibition rate, % Day 1 after HDI (day 15 after administration): 91.79%
Human DGAT2; [1]
  Ballooning degeneration: 2.0±0.0
  Fibrosis score: 0.9±0.1
  Grade of steatosis: 1.0±0.0
  Lobular inflammation: 1.8±0.2
  NAFLD score: 4.8±0.2
Human DGAT2; [2]
  Ballooning degeneration: 2.0±0.0
  Fibrosis score: 0.5±0.1
  Grade of steatosis: 0.7±0.1
  Lobular inflammation: 2.2±0.1
  NAFLD score: 4.9±0.2
Human DGAT2; [3]
  Ballooning degeneration: 1.3±0.1
  Fibrosis score: 0.8±0.2
  Grade of steatosis: 1.1±0.1
  Lobular inflammation: 2.0±0.1
  NAFLD score: 4.3±0.0
Human DGAT2; [4]
  Ballooning degeneration: 1.3±0.1
  Fibrosis score: 0.4±0.1
  Grade of steatosis: 0.5±0.2
  Lobular inflammation: 1.6±0.2
  NAFLD score: 3.4±0.2
Human DGAT2; FIG. 1 legend, hDGAT2 combined with western diet, over 4 weeks
  improvement on non-alcoholic steatohepatitis (NASH) by NAFLD activity score: improvement
Human DGAT2; FIG. 2 legend, hDGAT2 combined with western diet, over 4 weeks
  improvement on fibrosis in non-alcoholic steatohepatitis: improvement
DGAT2; D7
  Average inhibition rate, %: 84.9%
DGAT2; D28
  Average inhibition rate, %: 93.2%
DGAT2; D56
  Average inhibition rate, %: 89.4%
DGAT2; D99
  Average inhibition rate, %: 88%
DGAT2; conclusion in words, non-naive Cynomolgus macaque
  inhibitory activity on the target gene DGAT2: long-term inhibitory activity
